pEC50, pIC50: −log10 of the molar value.
Tests used:
[1] = target: T1, Human immunodeficiency virus type 1 integrase (Human immunodeficiency virus 1, UniProt Q7ZJM1); experiment: Inhibition of LEDGF/p75-independant HIV1 His/FLAG-tagged integrase expressed in Escherichia coli BL21(DE3) by HTRF assay
[2] = target: T1, Human immunodeficiency virus type 1 integrase; experiment: Inhibition of LEDGF/p75-dependant HIV1 His/FLAG-tagged integrase expressed in Escherichia coli BL21(DE3) by HTRF assay
[3] = target: T1, Human immunodeficiency virus type 1 integrase; experiment: Inhibition of biotinylated-TAR-RNA binding to HIV1 His6-tagged integrase expressed in Escherichia coli BL21(DE3) preincubated for 2 hrs followed by RNA addition and measured after 2 hrs by Alpha screen assay
[4] = target: T1, Human immunodeficiency virus type 1 integrase; experiment: Induction of HIV1 His/FLAG-tagged integrase hyper-multimerization expressed in Escherichia coli BL21(DE3) by HTRF assay
[5] = system: Human immunodeficiency virus 1; experiment: Antiviral activity against HIV-1 NL4-3 harboring integrase A128T mutant infected in human HeLa TZM-bl cells after 48 hrs by p24 ELISA; assay type: functional, organism-based; details: Human immunodeficiency virus 1, NL4-3, 48 h
[6] = system: Human immunodeficiency virus 1; experiment: Antiviral activity against HIV-1 NL4-3 harboring wild-type integrase infected in human HeLa TZM-bl cells after 48 hrs by p24 ELISA; assay type: functional, organism-based; details: Human immunodeficiency virus 1, NL4-3, 48 h
[7] = target: T1, Human immunodeficiency virus type 1 integrase; experiment: Inhibition of LEDGF/p75 binding to HIV1 His/FLAG-tagged integrase expressed in Escherichia coli BL21(DE3) by HTRF assay
[8] = Drug metabolism assessed as 1-([1,1'-biphenyl]-4-yl)-3-(chroman-6-yl)isoquinoline-4-carbaldehyde formation at 100 degC for 17 days by 1H NMR analysis
[9] = Stability of the compound at 60 degC for 17 hrs by 1H NMR analysis; assay type: physicochemical
[10] = Drug metabolism assessed as 1-([1,1'-biphenyl]-4-yl)-3-(chroman-6-yl)isoquinoline-4-carbaldehyde formation at 100 degC for 17 days by HSQC NMR analysis
[11] = Drug metabolism in DMSO d6 at 100 degC for 3 days by 1H NMR analysis
[12] = Drug level treated with 2-(1-(biphenyl-4-yl)-3-(chroman-6-yl)isoquinolin-4-yl)-2-tert-butoxyacetic acid at 100 degC for 17 days by HSQC NMR analysis; assay type: physicochemical; details: 408 h
[13] = Drug level treated with 2-(1-(biphenyl-4-yl)-3-(chroman-6-yl)isoquinolin-4-yl)-2-tert-butoxyacetic acid at 100 degC for 17 days by 1H NMR analysis; assay type: physicochemical; details: 408 h

T1 sequence (Q7ZJM1 whole entry): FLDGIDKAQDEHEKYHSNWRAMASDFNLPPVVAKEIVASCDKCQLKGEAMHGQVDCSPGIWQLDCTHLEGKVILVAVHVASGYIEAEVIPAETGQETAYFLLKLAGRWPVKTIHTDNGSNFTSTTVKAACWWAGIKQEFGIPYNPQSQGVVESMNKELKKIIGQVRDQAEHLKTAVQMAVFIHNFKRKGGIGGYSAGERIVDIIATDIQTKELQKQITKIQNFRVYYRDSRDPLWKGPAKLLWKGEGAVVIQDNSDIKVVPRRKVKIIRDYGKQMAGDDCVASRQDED

With CC(C)(C)OC(C(=O)O)c1c(-c2ccc3c(c2)CCCO3)nc(-c2ccccc2)c2ccccc12 (stereo not given) as the compound, how does the pIC50 [1] read?
The pIC50 was 5.33.

What does the source list for Cc1nc2ccc(Br)cc2c(-c2ccc(Cl)cc2)c1C(OC(C)(C)C)C(=O)O (stereo not given)?
pIC50 [2]: 6.82; pIC50 [3]: 6.87; pEC50 [4]: 6.84; pEC50 [5]: 4.91; pEC50 [6]: 6.20; pIC50 [7]: 6.82; pIC50 [1]: 6.92

For CC(C)(C)OC(C(=O)O)c1c(-c2ccc3c(c2)CCCO3)nc(-c2ccc(-c3ccccc3)cc2)c2ccccc12 (stereo not given), which Drug metabolism [8] is on record?
Its Drug metabolism is “Metabolite detected”.

What about the Stability [9] of the same compound?
The Stability was “Stable”.

And the Drug metabolism [10]?
Its Drug metabolism is “Metabolite detected”.

What about the pIC50 [1] of the same compound?
The pIC50 was 6.08.

Which Drug metabolism [11] does the source give for CC(C)(C)OC(C(=O)O)c1c(-c2ccc3c(c2)CCCO3)nc(-c2cccc(F)c2)c2ccccc12 (stereo not given) here?
Its Drug metabolism is “Metabolite detected”.

What about the Stability [9] of the same compound?
The Stability was “Stable”.

And the pIC50 [1]?
Its pIC50 is 4.89.

With CC(C)(C)OC(C(=O)O)c1c(-c2ccc3c(c2)CCCO3)nc(-c2ccco2)c2ccccc12 (stereo not given) as the compound, how does the pIC50 [1] read?
The pIC50 was 5.45.

With CC(C)(C)OC(C(=O)O)c1c(-c2ccc3c(c2)CCCO3)nc(-c2cccc(C(=O)O)c2)c2ccccc12 (stereo not given) as the compound, how does the pIC50 [1] read?
Its pIC50 is 4.91.

With CC(C)(C)OC(C(=O)O)c1c(-c2ccc3c(c2)CCCO3)nc(-c2nc3cc(Cl)ccc3[nH]2)c2ccccc12 (stereo not given) as the compound, how does the pIC50 [1] read?
Its pIC50 is 6.09.

With COc1ccc(-c2nc(-c3ccc4c(c3)CCCO4)c(C(OC(C)(C)C)C(=O)O)c3ccccc23)cc1 (stereo not given) as the compound, how does the pIC50 [1] read?
The pIC50 was 6.00.

What does the source list for COc1cccc(-c2nc(-c3ccc4c(c3)CCCO4)c(C(OC(C)(C)C)C(=O)O)c3ccccc23)c1 (stereo not given)?
Drug metabolism [11]: Metabolite detected; Stability [9]: Stable; pIC50 [1]: 5.94

With COc1cccc(-c2nc(-c3ccccc3)c(C(OC(C)(C)C)C(=O)O)c3ccccc23)c1 (stereo not given) as the compound, how does the pIC50 [1] read?
The pIC50 was 4.86.

With CC(C)(C)OC(C(=O)O)c1c(-c2ccc3c(c2)CCCO3)nc(-c2ccc3c(c2)CCCO3)c2ccccc12 (stereo not given) as the compound, how does the pIC50 [1] read?
The pIC50 was 5.91.

With CC(C)(C)OC(C(=O)O)c1c(-c2ccccc2)nc(-c2ccccc2)c2ccccc12 (stereo not given) as the compound, how does the pIC50 [1] read?
Its pIC50 is 5.00.

With CC(C)(C)OC(C(=O)O)c1c(-c2ccc3c(c2)CCCO3)nc(-c2ccc(C(F)(F)F)cc2)c2ccccc12 (stereo not given) as the compound, how does the pIC50 [1] read?
The pIC50 was 5.12.

With CC(C)(C)OC(C(=O)O)c1c(-c2ccc3c(c2)CCCO3)nc(-c2cnn(Cc3ccccc3)c2)c2ccccc12 (stereo not given) as the compound, how does the pIC50 [2] read?
The pIC50 was 4.63.

And the pIC50 [3]?
Its pIC50 is 6.68.

And the pEC50 [4]?
Its pEC50 is > 5.75.

And the pEC50 [5]?
The pEC50 was 6.14.

And the pEC50 [6]?
Its pEC50 is 5.96.

What about the pIC50 [7] of the same compound?
The pIC50 was 4.44.

And the pIC50 [1]?
The pIC50 was 6.32.

Which results are given for O=Cc1c(-c2ccc3c(c2)CCCO3)nc(-c2ccc(-c3ccccc3)cc2)c2ccccc12?
Drug metabolism [12]: Metabolite_Detected; Drug metabolism [13]: Metabolite_Detected

From ChEMBL document CHEMBL4330186, “An Isoquinoline Scaffold as a Novel Class of Allosteric HIV-1 Integrase Inhibitors” (ACS Med Chem Lett, 2019)
